Peptide text beside a SMILES is read from it.
Biological target: T1, factor IXa (Homo sapiens, UniProt P00740)
T1 construct: heavy chain of factor IXa comprised of residues 181–415; light chain of factor IXa comprised of residues 1–145
Assay: Factor IX peptide competition assay in the absence of factor VIIIa
Format: biochemical
Method: Each reaction mixture contained 20 nM of factor IXa, 100 nM of factor X, various concentrations of peptide, 25 μM of phospholipid, and 5 mM CaCl2 in TBS/BSA. The reaction mixtures were incubated for 2.5, 5, 10, 15, and 20 minutes at 37° C. and were stopped with the addition of 1.5 μL of 0.5 M EDTA and placed on ice. Forty μL of each reaction was 5 added to 100 μL of TBS/BSA in a 96 well microtiter plate and S-2222 was added to a final concentration of 100 μM.

- inhibitory effect on factor IXa's ability to activate factor X: no inhibitory effect
Structure (SMILES): CC(C)C[C@H](N)C(=O)N[C@H](C(=O)N[C@@H](CC(=O)O)C(=O)N[C@@H](CCCNC(=N)N)C(=O)N[C@@H](C)C(=O)N[C@H](C(=O)O)[C@@H](C)O)C(C)C [Protein P-4351, LVDRAT] (H-LVDRAT-OH; N-terminus and C-terminus assumed)
